This note sets out measurements from patent US12298319B2, “Method for measuring alpha value of muscarinic M1 receptor positive allosteric modulators” (Takeda Pharmaceutical Company Limited, priority 2017, dated 2025).

Where two headings read alike, the source gives them in different places.

Series [1] relates to Arc mRNA expression in mouse hippocampus. As to the kind of experiment: Arc mRNA expression in hippocampus (RT-PCR, PD marker). The note with it: 90 min after treatment. The format is in vivo. As to the method:
For in vivo pharmacodynamics (PD) marker analysis, mice were sacrificed by decapitation at 90 min after administration of Compound A or Compound B. Hippocampal tissues were isolated from the brain. These tissues were stored at -80° C. until RNA extraction. Total RNA from individual tissues was extracted using QIAzol Lysis Reagent and the RNeasy kit (Quiagen, Hilden, Germany) following the manufacturer's instruction. RT-PCR was carried out using ABI PRISM 7900HT sequence detection system (Life Technologies, Bedford, MA) and TagMan reagents (Eurogentec, Seraing, Belgium). RNA quantities were normalized using glyceraldehyde-3-phosphate dehydrogenase (GAPDH) mRNA transcripts according to manufacturer's instruction. The following primers were used for mouse Arc analysis: forward primer, [NT] ID NO:3); reverse primer, [NT] ID NO:4), TagMan probe, [NT] ID NO:5). The primers used for mouse Gapdh analysis were TagMan Rodent GAPDH Control Reagent, VIC probe, purchased from ABI (Applied biosystems-Life Technologies, Waltham, MA).

Series [2] addresses T1, M4R (Homo sapiens, UniProt P08173).
T1 sequence (P08173 1-479): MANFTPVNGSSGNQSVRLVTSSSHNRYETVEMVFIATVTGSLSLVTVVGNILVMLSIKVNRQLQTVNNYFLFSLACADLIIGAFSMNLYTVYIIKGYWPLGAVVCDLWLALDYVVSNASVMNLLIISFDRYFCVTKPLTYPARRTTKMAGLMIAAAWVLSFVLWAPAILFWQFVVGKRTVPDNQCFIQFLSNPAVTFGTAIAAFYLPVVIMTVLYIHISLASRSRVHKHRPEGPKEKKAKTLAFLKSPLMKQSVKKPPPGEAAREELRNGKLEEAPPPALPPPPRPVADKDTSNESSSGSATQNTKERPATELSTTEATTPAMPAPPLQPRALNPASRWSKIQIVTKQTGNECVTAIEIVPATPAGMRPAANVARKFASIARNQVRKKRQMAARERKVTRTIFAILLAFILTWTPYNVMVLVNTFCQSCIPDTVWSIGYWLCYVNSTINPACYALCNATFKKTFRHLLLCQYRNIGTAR
As to the kind of experiment: Ca2+ flux assay in CHO-K1 cells expressing human M4R. Format: cell-based. Details: expressed in transfected cells; host or cells: CHO-K1. Particulars: read-out: IP for M4R. Background: A change in cytosolic calcium serves as a functional read-out for many receptors and channels.

The subject of series [3] is IP1 production in the hippocampus. Nature of the series: In vivo IP1 assay, hippocampus of wild-type and M1R KO mice. More on the design: species or system mouse. An excerpt:
Hippocampus was isolated from the brain.

For series [4], the target named is T2, M2R (Homo sapiens, UniProt P08172).
T2 sequence (P08172 1-466): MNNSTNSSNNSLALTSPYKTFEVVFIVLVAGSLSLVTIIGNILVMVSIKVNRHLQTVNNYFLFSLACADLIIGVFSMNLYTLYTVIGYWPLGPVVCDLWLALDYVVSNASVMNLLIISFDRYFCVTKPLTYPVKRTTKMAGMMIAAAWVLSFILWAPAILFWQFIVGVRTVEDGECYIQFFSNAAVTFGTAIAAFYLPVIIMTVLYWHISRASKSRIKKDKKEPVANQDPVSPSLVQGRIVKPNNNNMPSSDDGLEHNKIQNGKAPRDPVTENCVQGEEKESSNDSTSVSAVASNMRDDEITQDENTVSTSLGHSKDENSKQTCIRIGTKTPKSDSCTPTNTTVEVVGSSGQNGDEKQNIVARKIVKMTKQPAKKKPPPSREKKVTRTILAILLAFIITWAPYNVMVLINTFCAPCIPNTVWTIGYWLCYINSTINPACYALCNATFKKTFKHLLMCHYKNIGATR
Nature of the series: Ca2+ flux assay in CHO-K1 cells expressing human M2R. Particulars: read-out: IP for M2R. Format: cell-based. Details: expressed in transfected cells; host or cells: CHO-K1.

Series [5] can be described thus: Plasma and brain concentration in samples of in vivo IP1 assay. Details: species or system mouse. The note with it: for concentration at 3 h: mouse, oral, mean±SD. As to the method: Plasma and brain concentration of Compound D in sample of in vivo IP1 assay at 3 h after oral treatment. Results represent the mean±SD. n=10 per group.
Plasma and brain concentration of Compound C in sample of in vivo IP1 assay at 3 h after oral treatment. Results represent the mean±SD. n=10 per group.

For series [6], the system named is rats. As to the kind of experiment: Assessment of cholinergic side effects in rats. The note with it: SD, rat, in vivo, po, 240 min. As to the method: SD Rats were placed individually into observation cages and acclimated for at least 1 h. […] The severity of diarrhea was scored as follows: 0, normal pellets; 1, wet but formed feces; 2, swollen or mucous feces; 3, severe watery diarrhea. For diarrhea, the number of rats and mice, in which more than or equal to 2 was scored, was counted. For fasciculation, the number of rats with marked fasciculation of both the upper and lower limbs was counted. For lacrimation, the number of rats, in which moderate to marked discharge (severer lacrimation than fluid around eyes) was induced, was counted. For salivation, the number of rats with severe salivation, but not just noticeably wet around mouth, was induced was counted. The maximum score during the observation was adopted.
For diarrhea, the number of rats scored more than or equal to 2 was counted. For fasciculation, the number of rats with marked fasciculation of both the upper and lower limbs was counted. For lacrimation, the number of rats in which moderate to marked discharge (severer lacrimation than fluid around eyes) was counted. For salivation, the number of rats with severe salivation, but not just noticeably wet around mouth, was counted. The maximum score during the observation was adopted. Data were presented as the number of incidence per total rats.
For diarrhea, the number of rats in which loose or mucous stool, or diarrhea was induced was counted. For fasciculation, the number of rats with marked fasciculation of both the upper and lower limbs was counted. For lacrimation, the number of rats in which moderate to marked discharge (severe lacrimation than fluid around eyes) was caused was counted. For salivation, the number of rats with severe salivation, but not just noticeably wet around mouth was counted. The maximum score during the observation was adopted. Data were presented as the number of incidence per total rats.

Regarding `Cn1cc(-c2ccc(CN3Cc4cccc(Oc5c(F)cccc5C#N)c4C3=O)cc2)cn1` [Compound B, 3-fluoro-2-((2-(4-(1-methyl-1H-pyrazol-4-yl)benzyl)-3-oxo-2,3-dihydro-1H-isoindol-4-yl)oxy)benzonitrile], the “increase in Arc mRNA expression level in mouse hippocampus” value in series [1] (10-100 mg/kg p.o.) is reported as “about 2 fold”.

Regarding `Cn1ccc(-c2ccc(CN3Cc4cccc(O[C@H]5CCCC[C@@H]5O)c4C3=O)cc2)n1` [Compound A, 7-(((1S,2S)-2-hydroxycyclohexyl)oxy)-2-(4-(1-methyl-1H-pyrazol-3-yl)benzyl)isoindolin-1-one], the entries for the “Arc mRNA expression level in mouse hippocampus” value in series [1] (30 mg/kg p.o.) and in series [1] (3-30 mg/kg p.o.) were “significant increase” and “enhanced the expression level of Arc mRNA in a dose-dependent manner”, respectively.

Regarding `Cc1c(Cc2ccc(-n3cccn3)cc2)cc2c(c1F)CN([C@H]1COCC[C@@H]1O)C2=O` [Compound D, 4-fluoro-2-[(3S,4S)-4-hydroxytetrahydro-2H-pyran-3-yl]-5-methyl-6-[4-(1H-pyrazol-1-yl)benzyl]-2,3-dihydro-1H-isoindol-1-one], the EC50 in series [2] and in series [4] was greater than 10 µM throughout. Further, the “IP1 production in the hippocampus” value in series [3] (M1R KO mice, 3 mg/kg p.o.) is given as “did not induce IP1 production”; in series [3] (wild-type mice, 3 mg/kg p.o., 3 h, % of vehicle-treated control), 153.3±9.3%. In addition, the “differences in PK profile between wild-type and M1R KO mice” value in series [5] (3 mg/kg p.o.) is given as “No significant differences”. Moreover, the concentration at 3 h in series [5] (brain, 3 mg/kg, 3 mg/kg p.o., M1KO mice, read-out: Brain concentration) was determined as 370 ± 50 ng/g; in series [5] (brain, 3 mg/kg, 3 mg/kg p.o., wild-type mice, read-out: Brain concentration), 350 ± 80 ng/g; in series [5] (plasma, 3 mg/kg, 3 mg/kg p.o., M1KO mice, read-out: Plasma concentration), 3.26 ± 0.26 µg/mL; in series [5] (plasma, 3 mg/kg, 3 mg/kg p.o., wild-type mice, read-out: Plasma concentration), 3.11 ± 0.49 µg/mL. Besides, the Diarrhea was 0/6 (0%) in series [6] (1 mg/kg), 1/6 (17%) in series [6] (3 mg/kg), 5/6 (83%) in series [6] (10 mg/kg) and 4/6 (67%) in series [6] (30 mg/kg). Further, the Fasciculation in series [6] (1 mg/kg), in series [6] (3 mg/kg), in series [6] (10 mg/kg) and in series [6] (30 mg/kg) was 0/6 (0%) throughout. Moreover, the Lacrimation in series [6] (1 mg/kg), in series [6] (3 mg/kg), in series [6] (10 mg/kg) and in series [6] (30 mg/kg) was 0/6 (0%) in each case. The Myosis in series [6] (1 mg/kg), in series [6] (3 mg/kg), in series [6] (10 mg/kg) and in series [6] (30 mg/kg) was 0/6 (0%) throughout. Moreover, the Salivation in series [6] (1 mg/kg), in series [6] (3 mg/kg), in series [6] (10 mg/kg) and in series [6] (30 mg/kg) was 0/6 (0%) in each case. Besides, the “minimal diarrhea inducing dose in rats” value in series [6] is 10 mg/kg.

Consider `Cn1cc(-c2ccc(Cc3cc4c(=O)n([C@H]5CCCC[C@@H]5O)cnc4c4ccccc34)cn2)cn1` [Compound C, 3-((1S,2S)-2-hydroxycyclohexyl)-6-((6-(1-methyl-1H-pyrazol-4-yl)pyridin-3-yl)methyl)benzo[h]quinazoline-4(3H)-one, reference compound], for which the EC50 in series [2] and in series [4] was greater than 1 µM each time. For the same compound, the “IP1 production in the hippocampus” value in series [3] (M1R KO mice, 10 mg/kg p.o.) was “not in M1R KO mice”; in series [3] (wild-type mice, 10 mg/kg p.o.), “significantly induced IP1 production”. The “differences in brain concentration between wild-type and M1R KO mice” value in series [5] (10 mg/kg p.o.) is “No significant differences”. Further, the concentration at 3 h in series [5] (brain, 10 mg/kg, 10 mg/kg p.o., M1KO mice, read-out: Brain concentration) came to 62.7 ± 9.1 ng/g; in series [5] (brain, 10 mg/kg, 10 mg/kg p.o., wild-type mice, read-out: Brain concentration), 63.7 ± 16.8 ng/g; in series [5] (plasma, 10 mg/kg, 10 mg/kg p.o., M1KO mice, read-out: Plasma concentration) it was 6.13 ± 1.16 µg/mL; in series [5] (plasma, 10 mg/kg, 10 mg/kg p.o., wild-type mice, read-out: Plasma concentration) it was 2.34 ± 0.628 µg/mL. For the same compound, the Diarrhea is 0/6 (0%) in series [6] (0.01 mg/kg), 0/6 (0%) in series [6] (0.03 mg/kg), 3/6 (50%) in series [6] (0.1 mg/kg) and 4/6 (67%) in series [6] (0.3 mg/kg). Moreover, the Fasciculation in series [6] (0.01 mg/kg), in series [6] (0.03 mg/kg), in series [6] (0.1 mg/kg) and in series [6] (0.3 mg/kg) was 0/6 (0%) in each case. Besides, the Lacrimation in series [6] (0.01 mg/kg), in series [6] (0.03 mg/kg), in series [6] (0.1 mg/kg) and in series [6] (0.3 mg/kg) was 0/6 (0%) throughout. The Myosis in series [6] (0.01 mg/kg), in series [6] (0.03 mg/kg), in series [6] (0.1 mg/kg) and in series [6] (0.3 mg/kg) was 0/6 (0%) in each case. The Salivation in series [6] (0.01 mg/kg), in series [6] (0.03 mg/kg), in series [6] (0.1 mg/kg) and in series [6] (0.3 mg/kg) was 0/6 (0%) in each case. In series [6], the “minimal diarrhea inducing dose in rats” value came to 0.1 mg/kg.
